Data reported in US20090298825A1, “Bicycloheteroaryl Compounds as P2x7 Modulators and Uses Thereof” (priority 2006, published 2009).
Read-outs that look alike come from different tables or passages of the source.

Target: T1, P2X7 receptor (Homo sapiens, UniProt Q99572)
T1 construct: endogenous in cells; host or cells: THP-1 cells differentiated with LPS and IFN-γ
T1 sequence (Q99572 1-595): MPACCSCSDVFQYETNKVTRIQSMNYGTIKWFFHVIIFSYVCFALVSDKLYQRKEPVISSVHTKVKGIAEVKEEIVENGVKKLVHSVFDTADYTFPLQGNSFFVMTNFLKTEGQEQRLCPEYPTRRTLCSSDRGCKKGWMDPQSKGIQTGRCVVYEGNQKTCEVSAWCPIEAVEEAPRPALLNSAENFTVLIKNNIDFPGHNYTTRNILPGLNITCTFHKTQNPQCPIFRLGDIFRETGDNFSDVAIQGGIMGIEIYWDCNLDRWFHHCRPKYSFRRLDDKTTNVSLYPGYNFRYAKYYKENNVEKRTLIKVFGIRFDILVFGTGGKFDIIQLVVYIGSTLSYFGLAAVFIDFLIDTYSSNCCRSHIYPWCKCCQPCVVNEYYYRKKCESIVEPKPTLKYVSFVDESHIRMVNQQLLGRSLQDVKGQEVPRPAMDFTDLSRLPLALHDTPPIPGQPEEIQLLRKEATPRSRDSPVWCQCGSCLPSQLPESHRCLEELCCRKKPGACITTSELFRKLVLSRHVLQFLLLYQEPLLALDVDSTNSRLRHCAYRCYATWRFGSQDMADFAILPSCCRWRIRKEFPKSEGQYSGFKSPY
Test: IL-1β release assay in differentiated THP-1 cells stimulated with BzATP (Example 9)
Assay type: cell-based
Conditions: for inhibition at 0.3 µM: 0.3 μM concentration, read-out: IL-1β % Inhib. @ 0.3 or 0.1 μM; for IC50: four parameter logistic fit
Method: The cells are then pretreated for 30 minutes with the compound of interest at the appropriate concentration in RPMI media containing 100 IU/mL penicillin, 100 ug/mL streptomycin. […] 30 uL of cell supernatant is then collected and IL-1β levels determined via ELISA (R&D systems Cat. # HSLB50) according to manufacturer's recommendations using the Tecan Safire plate reader. Background adjusted IL-1β levels of drug treated and non-treated cells are used to calculate the percent inhibition.
The compounds set forth in Table 1 were tested for activity in a cellular model as described herein. […] Measurements were made and IC50 values, presented in Table 2, below, were determined by fitting the data to a four parameter logistic equation using GraphPad Prism software (GraphPad Software, Inc). The equation may be expressed by the following formula:
Y=Bottom+(Top-Bottom)/(1+10̂((Log EC50−X)*HillSlope))
Where X is the logarithm of concentration, Y is the response and Y starts at Bottom and goes to Top with a sigmoid shape.

| SMILES | inhibition at 0.3 µM [%] | IC50 (read-out: IL-1β IC50) [nM] | IC50 (IL-1β IC50 (nM)) [nM] |
| --- | --- | --- | --- |
| O=C(Cc1ccc(Cl)c(Cl)c1)Nc1cccc2c(=O)n(C3CCNC3)ccc12 (centres unmarked) [ID 815] | > 76 | 125 |  |
| O=C(Cc1ccc(Cl)c(Cl)c1)Nc1cccc2c(=O)n(C3CCNCC3)ccc12 [ID 816] | 26 to 50 | 305 |  |
| CC(C(=O)Nc1cccc2c(=O)n(C3CCNCC3)ccc12)c1ccc(Cl)cc1 (centres unmarked) [ID 817] | 0 to 25 | 902 |  |
| O=C(Cc1ccc(Cl)c(C(F)(F)F)c1)Nc1cccc2c(=O)n(C3CCNCC3)ccc12 [ID 818] | > 76 | 99 |  |
| O=C(CC1CCCCCC1)Nc1cccc2c(=O)n(C3CCNCC3)ccc12 [ID 819] | 51 to 75 | 206 |  |
| O=C(CC1CCCCCC1)Nc1cccc2c(=O)n(C3CCNC3)ccc12 (centres unmarked) [ID 820] | > 76 | 25.7 |  |
| CC(C(=O)Nc1cccc2c(=O)n(C3CCNC3)ccc12)c1ccc(Cl)cc1 (centres unmarked) [ID 821] | 51 to 75 | 252 |  |
| O=C(Cc1ccc(Cl)c(Cl)c1)Nc1cccc2c(=O)n([C@H]3CCNC3)ccc12 [ID 822] | > 76 | 31.3 |  |
| CC(C(=O)Nc1cccc2c(=O)n([C@H]3CCNC3)ccc12)c1ccc(Cl)cc1 (some centres unmarked) [ID 823] | > 76 | 42.5 |  |
| O=C(CC1CCCCCC1)Nc1cccc2c(=O)n([C@H]3CCNC3)ccc12 [ID 824] | > 76 | 3.2 |  |
| O=C(Cc1ccc(Cl)c(Cl)c1)Nc1cccc2c(=O)n([C@@H]3CCNC3)ccc12 [ID 827] | > 76 | 25.5 |  |
| CC(C(=O)Nc1cccc2c(=O)n(C3CCNC3)ccc12)c1ccc(Cl)c(Cl)c1 (centres unmarked) [ID 831] | 51 to 75 | 154 |  |
| C[C@H](C(=O)Nc1cccc2c(=O)n([C@H]3CCNC3)ccc12)c1ccc(Cl)c(Cl)c1 [ID 832] | > 76 | 73.6 |  |
| CC(C(=O)Nc1cccc2c(=O)n([C@@H]3CCNC3)ccc12)c1ccc(Cl)cc1 (some centres unmarked) [ID 835] | 51 to 75 | 151 |  |
| O=C(Cc1ccc(Cl)c(C(F)(F)F)c1)Nc1cccc2c(=O)n([C@H]3CCNC3)ccc12 [ID 836] |  | 16 |  |
| O=C(CC1(O)CCCCCC1)Nc1cccc2c(=O)n([C@@H]3CCNC3)ccc12 [ID 837] | 51 to 75 | 275 |  |
| Cc1cc(-n2ccc3c(NC(=O)C(C)c4ccc(Cl)c(C(F)(F)F)c4)cccc3c2=O)n[nH]1 (centres unmarked) [ID 838] | > 76 | 14.9 |  |
| CC(C(=O)Nc1cccc2c(=O)n(-c3cc[nH]n3)ccc12)c1ccc(Cl)c(C(F)(F)F)c1 (centres unmarked) [ID 839] | > 76 | 14.1 |  |
| CC(C(=O)Nc1cccc2c(=O)n(-c3n[nH]cc3C#N)ccc12)c1ccc(Cl)c(C(F)(F)F)c1 (centres unmarked) [ID 840] | > 76 | 37.6 |  |

| SMILES | inhibition at 0.3 µM [%] | IC50 (read-out: IL-1β IC50) [nM] | IC50 (IL-1β IC50 (nM)) [nM] |
| --- | --- | --- | --- |
| O=C(CC12CC3CC(CC(C3)C1)C2)Nc1cccc2c(=O)n(-c3cc[nH]n3)ccc12 [ID 841] | > 76 | 0.295 |  |
| O=C(Cc1ccc(Cl)c(C(F)(F)F)c1)Nc1cccc2c(=O)n(-c3cc[nH]n3)ccc12 [ID 842] | > 76 | 1.24 |  |
| CC(C(=O)Nc1cccc2c(=O)n(-c3cc[nH]n3)ccc12)C1CCCCCC1 (centres unmarked) [ID 843] | > 76 | 12.2 |  |
| O=C(CC1CCCCCC1)Nc1cccc2c(=O)n(-c3cc[nH]n3)ccc12 [ID 844] | > 76 | 3.33 |  |
| O=C(Cc1cccc(C(F)(F)F)c1F)Nc1cccc2c(=O)n(C3CN4CCC3CC4)ccc12 (centres unmarked) [ID 845] | > 76 | 134 |  |
| O=C(Cc1ccc(Cl)cc1F)Nc1cccc2c(=O)n(C3CN4CCC3CC4)ccc12 (centres unmarked) [ID 846] | > 76 | 162 |  |
| O=C(Cc1ccc(Cl)c(C(F)(F)F)c1)Nc1cccc2c(=O)n(-c3cccnc3N3CCOCC3)ccc12 [ID 848] | > 76 | 44.4 |  |
| O=C(CC1(O)CCCCCC1)Nc1cccc2c(=O)n([C@H]3CCNC3)ccc12 [ID 849] | 0 to 25 | 403 |  |
| O=C(CC12CC3CC(CC(C3)C1)C2)Nc1cccc2c(=O)n(C3CN4CCC3CC4)ccc12 (centres unmarked) [ID 850] | > 76 |  | 1.88 |
| Cc1ncccc1-n1ccc2c(NC(=O)Cc3ccc(C(F)(F)F)cc3)cccc2c1=O [ID 851] | > 76 | 147 |  |
| Cc1ccncc1-n1ccc2c(NC(=O)Cc3cccc(C(F)(F)F)c3F)cccc2c1=O [ID 852] | > 76 | 43.1 |  |
| Cc1ccncc1-n1ccc2c(NC(=O)Cc3ccc(C(F)(F)F)cc3)cccc2c1=O [ID 853] | 51 to 75 | 245 |  |
| Cc1ncccc1-n1ccc2c(NC(=O)Cc3cccc(C(F)(F)F)c3F)cccc2c1=O [ID 854] | > 76 | 27.1 |  |
| Cc1ccncc1-n1ccc2c(NC(=O)Cc3ccc(C(F)(F)F)c(F)c3)cccc2c1=O [ID 856] | > 76 | 129 |  |
| Cc1ncccc1-n1ccc2c(NC(=O)Cc3ccc(F)c(Cl)c3)cccc2c1=O [ID 857] | > 76 | 75.7 |  |
| Cc1ncccc1-n1ccc2c(NC(=O)Cc3ccc(Cl)c(F)c3)cccc2c1=O [ID 858] | > 76 | 32.8 |  |
| Cc1ncccc1-n1ccc2c(NC(=O)Cc3ccc(Cl)cc3F)cccc2c1=O [ID 859] | > 76 | 50.1 |  |
| Cc1ncccc1-n1ccc2c(NC(=O)Cc3ccc(F)c(C(F)(F)F)c3)cccc2c1=O [ID 860] | > 76 | 13.9 |  |
| Cc1ncccc1-n1ccc2c(NC(=O)C(C)c3cccc(C(F)(F)F)c3F)cccc2c1=O (centres unmarked) [ID 862] | > 76 | 17.2 |  |

| SMILES | inhibition at 0.3 µM [%] | IC50 (read-out: IL-1β IC50) [nM] | IC50 (IL-1β IC50 (nM)) [nM] |
| --- | --- | --- | --- |
| Cc1ncccc1-n1ccc2c(NC(=O)[C@H](C)c3ccc(Cl)cc3)cccc2c1=O [ID 863] | > 76 | 43 |  |
| Cc1ncccc1-n1ccc2c(NC(=O)[C@@H](C)c3ccc(Cl)cc3)cccc2c1=O [ID 864] | > 76 | 111 |  |
| Cc1ncccc1-n1ccc2c(NC(=O)Cc3ccc(C(F)(F)F)cc3F)cccc2c1=O [ID 865] | > 76 | 76.7 |  |
| Cc1ncccc1-n1ccc2c(NC(=O)Cc3cc(F)c(F)c(F)c3)cccc2c1=O [ID 866] | 51 to 75 | 98.5 |  |
| Cc1ncccc1-n1ccc2c(NC(=O)Cc3ccc(F)c(F)c3F)cccc2c1=O [ID 867] | > 76 | 40.5 |  |
| Cc1ncccc1-n1ccc2c(NC(=O)Cc3ccc(C(F)(F)F)cc3C(F)(F)F)cccc2c1=O [ID 868] | > 76 | 68.7 |  |
| Cc1ncccc1-n1ccc2c(NC(=O)Cc3ccc(Cl)c(Cl)c3)cccc2c1=O [ID 869] | > 76 | 43.9 |  |
| O=C(Cc1ccc(Cl)c(C(F)(F)F)c1)Nc1cccc2c(=O)n(-c3cccnc3F)ccc12 [ID 870] | > 76 | 4.97 |  |
| O=C(Cc1ccc(F)c(C(F)(F)F)c1)Nc1cccc2c(=O)n(-c3cccnc3F)ccc12 [ID 872] | > 76 | 30.4 |  |
| O=C(Cc1ccc(Cl)c(F)c1)Nc1cccc2c(=O)n(-c3cccnc3F)ccc12 [ID 873] | > 76 | 31.4 |  |
| O=C(Cc1cccc(C(F)(F)F)c1F)Nc1cccc2c(=O)n(-c3cccnc3F)ccc12 [ID 874] | > 76 | 27.9 |  |
| CC(C(=O)Nc1cccc2c(=O)n(-c3cccnc3F)ccc12)c1cccc(C(F)(F)F)c1F (centres unmarked) [ID 875] | > 76 | 8.32 |  |
| O=C(Cc1ccc(Cl)c(Cl)c1)Nc1cccc2c(=O)n(C3CC3)ccc12 [ID 876] | > 76 | 15 |  |
| O=C(Cc1ccc(C(F)(F)F)cc1)Nc1cccc2c(=O)n(C3CC3)ccc12 [ID 877] | > 76 | 23.7 |  |
| O=C(CC1CCCCCC1)Nc1cccc2c(=O)n(C3CC3)ccc12 [ID 878] | > 76 | 2.21 |  |
| O=C(Cc1ccc(C(F)(F)F)c(F)c1)Nc1cccc2c(=O)n(C3CC3)ccc12 [ID 879] | > 76 | 6.79 |  |
| O=C(Cc1ccc(C(F)(F)F)cc1C(F)(F)F)Nc1cccc2c(=O)n(C3CC3)ccc12 [ID 880] | > 76 | 67.8 |  |
| O=C(Cc1ccc(F)c(Cl)c1)Nc1cccc2c(=O)n(C3CC3)ccc12 [ID 881] | > 76 | 4.32 |  |
| O=C(Cc1ccc(Cl)c(F)c1)Nc1cccc2c(=O)n(C3CC3)ccc12 [ID 882] | > 76 | 6.04 |  |
